According to patent EP0443598A2, “Peptides inhibiting the blood coagulation, their process of preparation and their use” (BEHRINGWERKE Aktiengesellschaft, priority 1990, dated 1991):

Tested on: Standard Humanplasma
Assay: partial thromboplastin time (PTT) test
Format: biochemical, Human
Settings: blank without peptide 38.8
Experimental: 10 mg des Peptids wurden in 1 ml Puffer (20 mM Tris, 150 mM NaCl pH 7.5) gelöst. Das Peptid wurde in der partiellen Thromboplastinzeit (PTT) gegenüber einem Peptid mit derselben Sequenz getestet, das anstelle von Phe(SO₃ H) jedoch Tyr enthielt.
100 Mikroliter Standard Humanplasma 100 Mikroliter Puffer (s.o.) 100 Mikroliter Kaolin/Pathromtin Reagenz (BEHRINGWERKE AG) 2 Minuten bei 37°C 100 Mikroliter CaCl₂-Lösung

[1] = Verdünnung 1:4 of peptide solution 10 mg in 1 ml buffer (20 mM Tris, 150 mM NaCl pH 7.5)
[2] = Verdünnung 1:8 of peptide solution 10 mg in 1 ml buffer
[3] = Verdünnung 1:16 of peptide solution 10 mg in 1 ml buffer
[4] = Verdünnung 1:32 of peptide solution 10 mg in 1 ml buffer
[5] = Verdünnung 1:64 of peptide solution 10 mg in 1 ml buffer
[6] = Verdünnung 1:128 of peptide solution 10 mg in 1 ml buffer
[7] = Verdünnung 1:256 of peptide solution 10 mg in 1 ml buffer
[8] = Verdünnung 1:512 of peptide solution 10 mg in 1 ml buffer
[9] = Verdünnung 1:1024 of peptide solution 10 mg in 1 ml buffer

**Q.** Which “Gerinnungszeiten in Sekunden” value [1] does the source give for “Asn-Gly-Asp-Phe-Glu-Glu-Ile-Pro-Glu-Glu-Phe(SO₃H)-Leu-OH [Peptid lt. Beispiel]” here?
**A.** 147.2 Sekunden

**Q.** And the “Gerinnungszeiten in Sekunden” value [2]?
**A.** 111.8 Sekunden

**Q.** What about the “Gerinnungszeiten in Sekunden” value [3] of the same substance?
**A.** 89.2 Sekunden

**Q.** And the “Gerinnungszeiten in Sekunden” value [4]?
**A.** 81.5 Sekunden

**Q.** What about the “Gerinnungszeiten in Sekunden” value [5] of the same substance?
**A.** 72.8 Sekunden

**Q.** What about the “Gerinnungszeiten in Sekunden” value [6] of the same substance?
**A.** 63.0 Sekunden

**Q.** And the “Gerinnungszeiten in Sekunden” value [7]?
**A.** 56.3 Sekunden

**Q.** And the “Gerinnungszeiten in Sekunden” value [8]?
**A.** 52.2 Sekunden

**Q.** And the “Gerinnungszeiten in Sekunden” value [9]?
**A.** 46.8 Sekunden

**Q.** For “Asn-Gly-Asp-Phe-Glu-Glu-Ile-Pro-Glu-Glu-Tyr-Leu-OH (NGDFEEIPEEYL; printed: Asn-Gly-Asp-Phe-Glu-Glu-Ile-Pro-Glu-Glu-Tyr-Leu-) [Peptid mit Tyr]”, which “Gerinnungszeiten in Sekunden” value [1] is on record?
**A.** 105.2 Sekunden

**Q.** And the “Gerinnungszeiten in Sekunden” value [2]?
**A.** 80.5 Sekunden

**Q.** And the “Gerinnungszeiten in Sekunden” value [3]?
**A.** 71.0 Sekunden

**Q.** What about the “Gerinnungszeiten in Sekunden” value [4] of the same substance?
**A.** 65.0 Sekunden

**Q.** And the “Gerinnungszeiten in Sekunden” value [5]?
**A.** 57.7 Sekunden

**Q.** What about the “Gerinnungszeiten in Sekunden” value [6] of the same substance?
**A.** 52.8 Sekunden

**Q.** And the “Gerinnungszeiten in Sekunden” value [7]?
**A.** 47.3 Sekunden

**Q.** What about the “Gerinnungszeiten in Sekunden” value [8] of the same substance?
**A.** 44.7 Sekunden

**Q.** And the “Gerinnungszeiten in Sekunden” value [9]?
**A.** 41.7 Sekunden
